From the supplement of paper PMC10307832 come the findings set out here.

Structures are written as SMILES.

For one test, the system named is NCI-H441. Briefly: relative viability (nuclei count vs DMSO), 5 days (fraction); higher = more cells survive. As to conditions: first compound 0.6325 µM. The procedure, abridged:
(§1)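 Relative viability equals treated-well nuclei counts divided by vehicle-well nuclei counts. Counts came from 4× images of lung cancer cell lines grown in 1536-well plates for 5 days after pin-tool dosing on the day after seeding. Dosing used one drug alone or a fixed anchor-drug dose plus five library-drug doses (not always all listed) in √10 steps, and values are medians of duplicate plates.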
Take `COCC1(CO)C(=O)C2CCN1CC2` (configuration not stated) [PRIMA-1MET] + Cc1nc(Nc2ncc(C(=O)Nc3c(C)cccc3Cl)s2)cc(N2CCN(CCO)CC2)n1 [Dasatinib] (partner 0.075 µM): the relative viability is 0.728.
On to `COCC1(CO)C(=O)C2CCN1CC2` (configuration not stated) [PRIMA-1MET] + O=C(c1cc(Cc2n[nH]c(=O)c3ccccc23)ccc1F)N1CCN(C(=O)C2CC2)CC1 [Olaparib] (partner 8 µM), for which the relative viability amounted to 0.674.

Staying with this test, now noted: first compound 2 µM.
`COCC1(CO)C(=O)C2CCN1CC2` (configuration not stated) [PRIMA-1MET] + N=C(N)NC(=N)NCCc1ccccc1 [Phenformin] (partner 250 µM) had a relative viability of 0.838.
The same measure, in the same setting: then `COCC1(CO)C(=O)C2CCN1CC2` (configuration not stated) [PRIMA-1MET] + CC(=O)c1c(C)c2cnc(Nc3ccc(N4CCNCC4)cn3)nc2n(C2CCCC2)c1=O [Palbociclib] (partner 0.5 µM), with 0.192; and `COCC1(CO)C(=O)C2CCN1CC2` (configuration not stated) [PRIMA-1MET] + Cc1nc(Nc2ncc(C(=O)Nc3c(C)cccc3Cl)s2)cc(N2CCN(CCO)CC2)n1 [Dasatinib] (partner 0.075 µM), with 0.544.
`COCC1(CO)C(=O)C2CCN1CC2` (configuration not stated) [PRIMA-1MET] + O=C(c1cc(Cc2n[nH]c(=O)c3ccccc23)ccc1F)N1CCN(C(=O)C2CC2)CC1 [Olaparib] (partner 8 µM) displayed a relative viability of 0.615.

The test is the same for the next values; noted with them: first compound 6.325 µM.
`COCC1(CO)C(=O)C2CCN1CC2` (configuration not stated) [PRIMA-1MET] + N=C(N)NC(=N)NCCc1ccccc1 [Phenformin] (partner 250 µM) yielded a relative viability of 0.657.
Same read-out and setting: the result for `COCC1(CO)C(=O)C2CCN1CC2` (configuration not stated) [PRIMA-1MET] + CC(=O)c1c(C)c2cnc(Nc3ccc(N4CCNCC4)cn3)nc2n(C2CCCC2)c1=O [Palbociclib] (partner 0.5 µM) reads 0.201; that for `COCC1(CO)C(=O)C2CCN1CC2` (configuration not stated) [PRIMA-1MET] + Cc1nc(Nc2ncc(C(=O)Nc3c(C)cccc3Cl)s2)cc(N2CCN(CCO)CC2)n1 [Dasatinib] (partner 0.075 µM), 0.571.
The compound `COCC1(CO)C(=O)C2CCN1CC2` (configuration not stated) [PRIMA-1MET] + O=C(c1cc(Cc2n[nH]c(=O)c3ccccc23)ccc1F)N1CCN(C(=O)C2CC2)CC1 [Olaparib] (partner 8 µM) returned a relative viability of 0.505.

The same test, now with this note: first compound 20 µM.
For `COCC1(CO)C(=O)C2CCN1CC2` (configuration not stated) [PRIMA-1MET] + N=C(N)NC(=N)NCCc1ccccc1 [Phenformin] (partner 250 µM), the relative viability was 0.183.
On the same count and under the same terms, the result for `COCC1(CO)C(=O)C2CCN1CC2` (configuration not stated) [PRIMA-1MET] + CC(=O)c1c(C)c2cnc(Nc3ccc(N4CCNCC4)cn3)nc2n(C2CCCC2)c1=O [Palbociclib] (partner 0.5 µM) reads 0.205.
On the same count and under the same terms, then `COCC1(CO)C(=O)C2CCN1CC2` (configuration not stated) [PRIMA-1MET] + Cc1nc(Nc2ncc(C(=O)Nc3c(C)cccc3Cl)s2)cc(N2CCN(CCO)CC2)n1 [Dasatinib] (partner 0.075 µM), with 0.134.
On the same count and under the same terms, then `COCC1(CO)C(=O)C2CCN1CC2` (configuration not stated) [PRIMA-1MET] + O=C(c1cc(Cc2n[nH]c(=O)c3ccccc23)ccc1F)N1CCN(C(=O)C2CC2)CC1 [Olaparib] (partner 8 µM), with 0.407.

The subject of another test is RERF-LC-KJ. The description is as above. Particulars: first compound 0.2 µM. The procedure, abridged: as §1
For `COCC1(CO)C(=O)C2CCN1CC2` (configuration not stated) [PRIMA-1MET] + N=C(N)NC(=N)NCCc1ccccc1 [Phenformin] (partner 250 µM), the relative viability turned out to be 0.493.
On the same count and under the same terms, then `COCC1(CO)C(=O)C2CCN1CC2` (configuration not stated) [PRIMA-1MET] + CC(=O)c1c(C)c2cnc(Nc3ccc(N4CCNCC4)cn3)nc2n(C2CCCC2)c1=O [Palbociclib] (partner 0.5 µM), with 1.13; and `COCC1(CO)C(=O)C2CCN1CC2` (configuration not stated) [PRIMA-1MET] + Cc1nc(Nc2ncc(C(=O)Nc3c(C)cccc3Cl)s2)cc(N2CCN(CCO)CC2)n1 [Dasatinib] (partner 0.075 µM), with 0.759; and `COCC1(CO)C(=O)C2CCN1CC2` (configuration not stated) [PRIMA-1MET] + O=C(c1cc(Cc2n[nH]c(=O)c3ccccc23)ccc1F)N1CCN(C(=O)C2CC2)CC1 [Olaparib] (partner 8 µM), with 0.969.

Still in this test, the particulars now being: first compound 0.6325 µM.
`COCC1(CO)C(=O)C2CCN1CC2` (configuration not stated) [PRIMA-1MET] + N=C(N)NC(=N)NCCc1ccccc1 [Phenformin] (partner 250 µM): the relative viability was 0.432.
Still for that read-out and setting: the result for `COCC1(CO)C(=O)C2CCN1CC2` (configuration not stated) [PRIMA-1MET] + CC(=O)c1c(C)c2cnc(Nc3ccc(N4CCNCC4)cn3)nc2n(C2CCCC2)c1=O [Palbociclib] (partner 0.5 µM) reads 1.13; that for `COCC1(CO)C(=O)C2CCN1CC2` (configuration not stated) [PRIMA-1MET] + Cc1nc(Nc2ncc(C(=O)Nc3c(C)cccc3Cl)s2)cc(N2CCN(CCO)CC2)n1 [Dasatinib] (partner 0.075 µM), 0.833; that for `COCC1(CO)C(=O)C2CCN1CC2` (configuration not stated) [PRIMA-1MET] + O=C(c1cc(Cc2n[nH]c(=O)c3ccccc23)ccc1F)N1CCN(C(=O)C2CC2)CC1 [Olaparib] (partner 8 µM), 0.988.

The same test, now with this note: first compound 2 µM.
As for `COCC1(CO)C(=O)C2CCN1CC2` (configuration not stated) [PRIMA-1MET] + N=C(N)NC(=N)NCCc1ccccc1 [Phenformin] (partner 250 µM), the relative viability was 0.449.
The compound `COCC1(CO)C(=O)C2CCN1CC2` (configuration not stated) [PRIMA-1MET] + CC(=O)c1c(C)c2cnc(Nc3ccc(N4CCNCC4)cn3)nc2n(C2CCCC2)c1=O [Palbociclib] (partner 0.5 µM) registered a relative viability of 0.978.
Compound `COCC1(CO)C(=O)C2CCN1CC2` (configuration not stated) [PRIMA-1MET] + Cc1nc(Nc2ncc(C(=O)Nc3c(C)cccc3Cl)s2)cc(N2CCN(CCO)CC2)n1 [Dasatinib] (partner 0.075 µM) registered a relative viability of 0.931.
`COCC1(CO)C(=O)C2CCN1CC2` (configuration not stated) [PRIMA-1MET] + O=C(c1cc(Cc2n[nH]c(=O)c3ccccc23)ccc1F)N1CCN(C(=O)C2CC2)CC1 [Olaparib] (partner 8 µM): the relative viability came to 0.977.

Still in this test, the particulars now being: first compound 6.325 µM.
As for `COCC1(CO)C(=O)C2CCN1CC2` (configuration not stated) [PRIMA-1MET] + N=C(N)NC(=N)NCCc1ccccc1 [Phenformin] (partner 250 µM), the relative viability stood at 0.52.
